# Assay results reported in PubChem BioAssay AID1963844 (Molecular Pharmacology Branch, DTP, NCI, 2024).
# System: 422866-222-R5-J1-PDC complex spheroid viability
# Assay: Anticancer human tumor 422866-222-R5-J1-PDC patient-derived pancreatic adenocarcinoma cell line growth inhibition [POLQ]
# Details: for IC50: curve of first compound; for viability, T/C: stronger effect = lower value
# Method: Multicellular complex tumor spheroid response to Polymerase (POL) inhibitors (novobiocin, ART-558, RP6685) in combination with a variety of drugs and investigational agents in selected tumor cell lines
# The POL inhibitors (novobiocin, ART-558, and RP6685) were evaluated both individually and in combination with standard of care and investigational anticancer small molecules within a complex spheroid model of solid tumors. . Complex spheroids include a stromal component modeled by human endothelial cells (HUVEC) and fibroblasts modeled by human mesenchymal stem cells (MSCs). The concentration ranges selected for each drug and investigational agent were based upon clinically achievable concentrations if the clinical Cmax of the agent was known.
# Compounds. The drugs and investigational agents: novobiocin (NSC847541), ART-558 (NSC835418), RP-6685 (NSC848927), peposertib (NSC802822), ceralasertib (NSC780249), elimusertib (NSC800525), camonsertib (NSC841442), AZD-1390 (NSC803789), olaparib (NSC753686), talazoparib (NSC767125), rucaparib (NSC756644), sotorasib (NSC818433), MRTX-1133 (NSC836407), SN-38 (NSC673596), topotecan (NSC609699), epotoside (NSC141540), doxorubicin (NSC123127), gemcitabine (NSC613327), 5-fluorouracil (NSC19893), paclitaxel (NSC125973), vemurafenib (NSC761431), MSA-2 (NSC828583), SN-011 (NSC837082), adavosertib (NSC754352), prexasertib (NSC758257), carboplatin (NSC241240) and oxaliplatin (NSC266046), were obtained from the National Cancer Institute (NCI) Developmental Therapeutics Program Chemical Repository (21). The FDA-approved anticancer drug set is available from the Developmental Therapeutics Program at https://dtp.cancer.gov/organization/dscb/obtaining/. […] The stock solutions were prepared in dimethyl sulfoxide (DMSO, Sigma-Aldrich, St. Louis, MO, cat. D2650), except for the platinum compounds which were prepared in saline (Quality Biological, Gaithersburg, MD, cat. 114-055-101), at 800-fold the tested concentration and stored at -70 degrees C prior to their use. All drugs and investigational agents were tested over a range starting from a high concentration at or near the clinical Cmax and decreasing in half-log increments. If the clinical Cmax for an agent had not been determined, the highest concentration tested was 10 microM, except for SN-38, which was tested at a high concentration of 1 microM.
# Cell Culture. All cells were maintained in an incubator at 37 degrees C and 5% CO2 with 95% humidity. The PDC lines were cultured according to standard operating procedures established by the NCI PDMR (https://pdmr.cancer.gov). Table 3 of the manuscript, lists the cell lines along with the number of the three cell types plated to form the mct-spheroids and media for tumor cell growth. After thawing, all PDC lines, except 997537-175-T-J1-PDC and 415267-285-R-J2-PDC, were cultured in Matrigel-coated flasks prepared with a working solution of 1X Ham's F-12 nutrient mix, without supplementation (Thermo Fisher Scientific, cat. 11765054), 100 U/mL penicillin-streptomycin (Thermo Fisher Scientific, cat. 15140122), and 2.5% Matrigel (Corning Inc., Corning, NY, cat. 354248) for the first three passages. The two PDC lines 997537-175-T-J1-PDC and 415267-285-R-J2-PDC were cultured on uncoated flasks. The 857933-349-R-J2-PDC line was cultured in 6C/Colon 1B media containing advanced DMEM/F-12 (Thermo Fisher Scientific, cat. 12634028), 10 mM HEPES (Thermo Fisher Scientific, cat. 15630080), 1X GlutaMAX supplement (Thermo Fisher Scientific, cat. 35050061), 0.1 mg/mL primocin (InvivoGen, San Diego, CA, cat. ant-pm-2), 10% defined fetal bovine serum, heat inactivated (HyClone Laboratories Inc., Logan, UT, cat. SH30070.03HI), 50% L-WRN conditioned media (ATCC, cat. CRL-3276), 1.25 mM N-Acetyl-L-cysteine (Sigma-Aldrich, cat. A9165), 10 mM nicotinamide (Sigma-Aldrich, cat. N0636), 1X B-27 supplement (Thermo Fisher Scientific, cat. 17504044), 1X N-2 supplement (Thermo Fisher Scientific, cat. […]
# [1] = second compound 0.0316 µM, first compound 0.0316 µM
# [2] = second compound 0.0316 µM, first compound 0.1 µM
# [3] = second compound 0.0316 µM, first compound 0.316 µM
# [4] = second compound 0.0316 µM, first compound 1 µM
# [5] = second compound 0.1 µM, first compound 0.0316 µM
# [6] = second compound 0.1 µM, first compound 0.1 µM
# [7] = second compound 0.1 µM, first compound 0.316 µM
# [8] = second compound 0.1 µM, first compound 1 µM
# [9] = second compound 0.316 µM, first compound 0.0316 µM
# [10] = second compound 0.316 µM, first compound 0.1 µM
# [11] = second compound 0.316 µM, first compound 0.316 µM
# [12] = second compound 0.316 µM, first compound 1 µM
# [13] = second compound 1 µM, first compound 0.0316 µM
# [14] = second compound 1 µM, first compound 0.1 µM
# [15] = second compound 1 µM, first compound 0.316 µM
# [16] = second compound 1 µM, first compound 1 µM
# [17] = second compound 3.16 µM, first compound 0.0316 µM
# [18] = second compound 3.16 µM, first compound 0.1 µM
# [19] = second compound 3.16 µM, first compound 0.316 µM
# [20] = second compound 3.16 µM, first compound 1 µM
# [21] = second compound 10 µM, first compound 0.0316 µM
# [22] = second compound 10 µM, first compound 0.1 µM
# [23] = second compound 10 µM, first compound 0.316 µM
# [24] = second compound 10 µM, first compound 1 µM
# 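Note: spheroids exposed to compounds for one week before readout.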
# 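Throughout, for viability, T/C: percent of DMSO vehicle wells luminescence so 100% = untreated viability.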
compound,measurement,setting,value
CCc1c2c(nc3ccc(O)cc13)-c1cc3c(c(=O)n1C2)COC(=O)[C@]3(O)CC + Cc1cccc(N(C)C(=O)C2C(O)CCN2c2nc(C)cc(C(F)(F)F)c2C#N)c1,IC50,second compound 0.0316 µM,< 0.00316 µM
same,IC50,second compound 0.1 µM,< 0.00316 µM
same,IC50,second compound 0.316 µM,< 0.00316 µM
same,IC50,second compound 1 µM,< 0.00316 µM
same,IC50,second compound 3.16 µM,< 0.00316 µM
same,IC50,second compound 10 µM,< 0.00316 µM
same,"viability, T/C","second compound 0.0316 µM, first compound 0.00316 µM",44.4%
same,"viability, T/C","second compound 0.0316 µM, first compound 0.01 µM",37.4%
same,"viability, T/C",[1],38.7%
same,"viability, T/C",[2],37.7%
same,"viability, T/C",[3],34.4%
same,"viability, T/C",[4],21.4%
same,"viability, T/C","second compound 0.1 µM, first compound 0.00316 µM",49.1%
same,"viability, T/C","second compound 0.1 µM, first compound 0.01 µM",34.3%
same,"viability, T/C",[5],38.9%
same,"viability, T/C",[6],34.8%
same,"viability, T/C",[7],34.2%
same,"viability, T/C",[8],28.2%
same,"viability, T/C","second compound 0.316 µM, first compound 0.00316 µM",46.2%
same,"viability, T/C","second compound 0.316 µM, first compound 0.01 µM",40.4%
same,"viability, T/C",[9],37.3%
same,"viability, T/C",[10],38.1%
same,"viability, T/C",[11],34.6%
same,"viability, T/C",[12],25%
same,"viability, T/C","second compound 1 µM, first compound 0.00316 µM",40.9%
same,"viability, T/C","second compound 1 µM, first compound 0.01 µM",45.4%
same,"viability, T/C",[13],34.4%
same,"viability, T/C",[14],35.2%
same,"viability, T/C",[15],40.6%
same,"viability, T/C",[16],18.2%
same,"viability, T/C","second compound 3.16 µM, first compound 0.00316 µM",49.7%
same,"viability, T/C","second compound 3.16 µM, first compound 0.01 µM",38.3%
same,"viability, T/C",[17],35.1%
same,"viability, T/C",[18],34.6%
same,"viability, T/C",[19],39.3%
same,"viability, T/C",[20],26.4%
same,"viability, T/C","second compound 10 µM, first compound 0.00316 µM",42.1%
same,"viability, T/C","second compound 10 µM, first compound 0.01 µM",40.1%
same,"viability, T/C",[21],42.2%
same,"viability, T/C",[22],38%
same,"viability, T/C",[23],44.2%
same,"viability, T/C",[24],24.6%
O=C(Nc1ccc(O)c(NS(=O)(=O)c2ccc(F)cc2)c1)c1ccc(-c2ccccc2)cc1 + Cc1cccc(N(C)C(=O)C2C(O)CCN2c2nc(C)cc(C(F)(F)F)c2C#N)c1,IC50,second compound 0.0316 µM,> 10 µM
same,IC50,second compound 0.1 µM,> 10 µM
same,IC50,second compound 0.316 µM,> 10 µM
same,IC50,second compound 1 µM,> 10 µM
same,IC50,second compound 3.16 µM,> 10 µM
same,IC50,second compound 10 µM,> 10 µM
same,"viability, T/C",[1],94.2%
same,"viability, T/C",[2],89.3%
same,"viability, T/C",[3],73.9%
same,"viability, T/C",[4],89.3%
same,"viability, T/C","second compound 0.0316 µM, first compound 3.16 µM",99.8%
same,"viability, T/C","second compound 0.0316 µM, first compound 10 µM",121%
same,"viability, T/C",[5],85.4%
same,"viability, T/C",[6],89.8%
same,"viability, T/C",[7],89%
same,"viability, T/C",[8],91.3%
same,"viability, T/C","second compound 0.1 µM, first compound 3.16 µM",95.5%
same,"viability, T/C","second compound 0.1 µM, first compound 10 µM",116%
same,"viability, T/C",[9],94.3%
same,"viability, T/C",[10],99%
same,"viability, T/C",[11],90.9%
same,"viability, T/C",[12],101%
same,"viability, T/C","second compound 0.316 µM, first compound 3.16 µM",90.7%
same,"viability, T/C","second compound 0.316 µM, first compound 10 µM",106%
same,"viability, T/C",[13],96%
same,"viability, T/C",[14],94.5%
same,"viability, T/C",[15],99.2%
same,"viability, T/C",[16],88.9%
same,"viability, T/C","second compound 1 µM, first compound 3.16 µM",86.3%
same,"viability, T/C","second compound 1 µM, first compound 10 µM",113%
same,"viability, T/C",[17],97.2%
same,"viability, T/C",[18],91.8%
same,"viability, T/C",[19],89.2%
same,"viability, T/C",[20],92.9%
same,"viability, T/C","second compound 3.16 µM, first compound 3.16 µM",94.2%
same,"viability, T/C","second compound 3.16 µM, first compound 10 µM",118%
same,"viability, T/C",[21],71.9%
same,"viability, T/C",[22],82.3%
same,"viability, T/C",[23],87.3%
same,"viability, T/C",[24],86.8%
same,"viability, T/C","second compound 10 µM, first compound 3.16 µM",97.6%
same,"viability, T/C","second compound 10 µM, first compound 10 µM",103%
